Laboratory results: patent publication US20160024057A1, “INDAZOLE RETINOIC ACID RECEPTOR-RELATED ORPHAN RECEPTOR MODULATORS AND USES THEREOF” (INNOV17 LLC, priority 2014, published 2016)

How the values were obtained:
Type in all cases: cell-based
[1] = tested on: IL-17F; assay: Human TH17 cytokine inhibition measured by ELISA: IL-17F; conditions: 72 h; human CD4+ T cells under TH17-polarizing conditions, 3 days, supernatant ELISA
Method: (§1) Human TH17 Cytokine Inhibition as Measured by ELISA
(§2) Peripheral blood mononuclear cells (PBMCs) were sourced from freshly prepared leukocyte enriched plasma (buffy coat) from healthy donors (New York Blood Center). PBMCs were isolated by density gradient centrifugation using Ficoll-Paque™ PLUS (GE Healthcare). Human CD4+ T cells were seeded into 96-well plates (5×10^4 cells/well) and activated with plate-bound anti-human (h)-CD3 antibody and soluble h-aCD28 (both at 1 ug/ml; eBioscience) and differentiated into TH17 cells with 20 ng/mL h-IL-6, 5 ng/mL h-TGF-β1, 10 ng/mL h-IL-23 (eBioscience) and 10 ng/mL IL-1β (Miltenyi Biotec) in serum-free TexMACS Medium (Miltenyi Biotec) supplemented with 1% Penicillin/Streptomycin (Lonza) for 3 days. CD4+ T cells propagated under TH17-polarizing conditions were cultured in the presence or absence of various concentrations of compounds with a final concentration of 0.1% DMSO. Supernatants were collected and stored at −20° C. until assayed for IL-17A, IL-17F and IL-21 levels by “Ready-Set-Go” ELISA kits (eBioscience) as per manufacturer's instructions. Endpoint absorbance was read at 450 nm using a microplate reader (Perkin Elmer).

[2] = tested on: IL-17A; assay: Human TH17 cytokine inhibition measured by ELISA: IL-17A; conditions: human CD4+ T cells under TH17-polarizing conditions, 3 days, supernatant ELISA
Method: as §1, §2

[3] = tested on: IL-21; assay: Human TH17 cytokine inhibition measured by ELISA: IL-21; conditions: 72 h; human CD4+ T cells under TH17-polarizing conditions, 3 days, supernatant ELISA
Method: as §1, §2

[4] = tested on: IL-22; assay: Human TH17 cytokine inhibition measured by ELISA: IL-22; conditions: 72 h; human CD4+ T cells under TH17-polarizing conditions, 3 days, supernatant ELISA

Compound	IC50 [1]	IC50 ([2]; 72 h)	IC50 [3]	IC50 [2]	IC50 [4]
C[C@@H]1C[C@H](Cn2ncc3cc(-c4cn[nH]c4)ccc32)CN1S(=O)(=O)c1ccccc1 (racemic) [Example 33, rac.-cis-1-((-5-methyl-1-(phenylsulfonyl)pyrrolidin-3-yl)methyl)-5-(1H-pyrazol-4-yl)-1H-indazole]	< 10 µM	< 10 µM	< 10 µM	–	–
O=C(CCc1ccccc1)N1CCC(Cn2ncc3cc(-c4cn[nH]c4)ccc32)CC1 [Example 3, 1-(4-((5-(1H-pyrazol-4-yl)-1H-indazol-1-yl)methyl)piperidin-1-yl)-3-phenylpropan-1-one]	< 10 µM	< 10 µM	< 10 µM	–	–
O=C(CC1CCCCC1)N1CCC(Cn2ncc3cc(-c4cn[nH]c4)ccc32)CC1 [Example 4, 1-(4-((5-(1H-pyrazol-4-yl)-1H-indazol-1-yl)methyl)piperidin-1-yl)-2-cyclohexylethanone]	< 10 µM	< 10 µM	< 10 µM	–	–
O=C(Cc1ccccc1)N1CCC(Cn2ncc3cc(-c4cn[nH]c4)ccc32)CC1 [Example 7, 1-(4-((5-(1H-pyrazol-4-yl)-1H-indazol-1-yl)methyl)piperidin-1-yl)-2-phenylethanone]	< 10 µM	< 10 µM	< 10 µM	–	–
O=C(CCCc1ccccc1)N1CCC(Cn2ncc3cc(-c4cn[nH]c4)ccc32)CC1 [Example 8, 1-(4-((5-(1H-pyrazol-4-yl)-1H-indazol-1-yl)methyl)piperidin-1-yl)-4-phenylbutan-1-one]	< 10 µM	< 10 µM	< 10 µM	–	–
CC1(C)CC(Cn2ncc3cc(-c4cn[nH]c4)ccc32)CN1C(=O)Cc1ccccc1 (centres unmarked) [Example 19, 1-(4-((5-(1H-pyrazol-4-yl)-1H-indazol-1-yl)methyl)-2,2-dimethylpyrrolidin-1-yl)-2-phenylethanone]	< 10 µM	< 10 µM	–	–	–
O=S(=O)(c1ccccc1)N1CCC(Cn2ncc3cc(-c4cn[nH]c4)ccc32)CC1 [Example 30, 1-((1-(phenylsulfonyl)piperidin-4-yl)methyl)-5-(1H-pyrazol-4-yl)-1H-indazole]	< 10 µM	< 10 µM	< 10 µM	–	< 10 µM
O=S(=O)(Cc1ccccc1)N1CCC(Cn2ncc3cc(-c4cn[nH]c4)ccc32)CC1 [Example 32, 1-((1-(benzylsulfonyl)piperidin-4-yl)methyl)-5-(1H-pyrazol-4-yl)-1H-indazole]	< 10 µM	< 10 µM	< 10 µM	–	< 10 µM

Other lines, results leading:

IC50 [1]	IC50 ([2]; 72 h)	IC50 [3]	IC50 [2]	IC50 [4]	Compound
–	–	–	< 10 µM	–	C[C@@H]1C[C@@H](Cn2ncc3cc(-c4cn[nH]c4)ccc32)CN1S(=O)(=O)c1ccccc1 (racemic) [Example 34, rac.-trans-1-((-5-methyl-1-(phenylsulfonyl)pyrrolidin-3-yl)methyl)-5-(1H-pyrazol-4-yl)-1H-indazole]
< 10 µM	< 10 µM	< 10 µM	–	–	C[C@H]1C[C@@H](Cn2ncc3cc(-c4cn[nH]c4)ccc32)CN1C(=O)CCc1ccccc1 (racemic) [Example 46, rac.-cis-1-(4-((5-(1H-pyrazol-4-yl)-1H-indazol-1-yl)methyl)-2-methylpyrrolidin-1-yl)-3-phenylpropan-1-one]
< 10 µM	< 10 µM	< 10 µM	–	–	C[C@@H]1C[C@@H](Cn2ncc3cc(-c4cn[nH]c4)ccc32)CN1C(=O)CCc1ccccc1 (racemic) [Example 47, rac.-trans-1-(4-((5-(1H-pyrazol-4-yl)-1H-indazol-1-yl)methyl)-2-methylpyrrolidin-1-yl)-3-phenylpropan-1-one]
< 10 µM	< 10 µM	< 10 µM	–	–	CC1(C)CC(Cn2ncc3cc(-c4cn[nH]c4)ccc32)CN1S(=O)(=O)c1ccccc1 (centres unmarked) [Example 35, 1-((5,5-dimethyl-1-(phenylsulfonyl)pyrrolidin-3-yl)methyl)-5-(1H-pyrazol-4-yl)-1H-indazole]
< 10 µM	< 10 µM	–	–	–	O=S(=O)(c1ccc(F)cc1)N1CCC(Cn2ncc3cc(-c4cn[nH]c4)ccc32)CC1 [Example 37, 1-((1-((4-fluorophenyl)sulfonyl)piperidin-4-yl)methyl)-5-(1H-pyrazol-4-yl)-1H-indazole]
< 10 µM	< 10 µM	–	–	–	N#Cc1ccc(S(=O)(=O)N2CCC(Cn3ncc4cc(-c5cn[nH]c5)ccc43)CC2)cc1 [Example 38, 4-(4-((5-(1H-pyrazol-4-yl)-1H-indazol-1-yl)methyl)piperidin-1-ylsulfonyl)benzonitrile]
< 10 µM	< 10 µM	–	–	–	O=S(=O)(c1cccnc1)N1CCC(Cn2ncc3cc(-c4cn[nH]c4)ccc32)CC1 [Example 39, 5-(1H-pyrazol-4-yl)-1-((1-(pyridin-3-ylsulfonyl)piperidin-4-yl)methyl)-1H-indazole]
< 10 µM	< 10 µM	–	–	–	Cc1ccc(S(=O)(=O)N2CCC(Cn3ncc4cc(-c5cn[nH]c5)ccc43)CC2)cc1 [Example 42, 5-(1H-pyrazol-4-yl)-1-((1-tosylpiperidin-4-yl)methyl)-1H-indazole]
< 10 µM	< 10 µM	–	–	–	N#Cc1cccc(S(=O)(=O)N2CCC(Cn3ncc4cc(-c5cn[nH]c5)ccc43)CC2)c1 [Example 43, 3-((4-((5-(1H-pyrazol-4-yl)-1H-indazol-1-yl)methyl)piperidin-1-yl)sulfonyl)benzonitrile]
< 10 µM	< 10 µM	–	–	–	O=S(=O)(c1ccc(C(F)F)cc1)N1CCC(Cn2ncc3cc(-c4cn[nH]c4)ccc32)CC1 [Example 44, 1-((1-((4-(difluoromethyl)phenyl)sulfonyl)piperidin-4-yl)methyl)-5-(1H-pyrazol-4-yl)-1H-indazole]
